Measurements from PubChem BioAssay AID1918954 (Molecular Pharmacology Branch, DTP, NCI, 2023).
Where “and” joins values, the source holds several entries; their conditions need not be identical. Identical values can stand only once.

System: MDA-MB-468 complex spheroids with HUVEC/MSC, viability
Test: Anticancer human tumor MDA-MB-468 cell line growth inhibition;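 further: spheroids exposed to agents for seven days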;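 on viability, T/C: 100% = DMSO vehicle control viability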
Conditions: for viability, T/C: stronger effect = lower value
How it was run: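 Multicellular complex spheroids of tumor cells with human endothelial cells (HUVEC) and mesenchymal stem cells; the LSD1 inhibitor iadademstat was combined with standard-of-care or investigational agents. Top concentration at or near clinical Cmax, half-log dilutions; final DMSO ≤0.25%.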

NS(=O)(=O)OCC1CC(n2ccc3c(NC4CCc5ccccc54)ncnc32)CC1O (configuration not stated) + NC1CC1c1ccc(-c2cccc(O)c2)cc1
IC50 (curve of first compound, second compound 0.1 µM): 11.5 nM | IC50 (curve of first compound, second compound 0.316 µM): 11.2 nM | IC50 (curve of first compound, second compound 1 µM): < 9.49 nM | IC50 (curve of first compound, second compound 3.16 µM): < 9.49 nM | IC50 (curve of first compound, second compound 10 µM): < 9.49 nM | viability, T/C (second compound 0.1 µM, first compound 0.00949 µM): 54.5% | viability, T/C (second compound 0.1 µM, first compound 0.03 µM): 28.2% | viability, T/C (second compound 0.1 µM, first compound 0.0949 µM): 9.26% | viability, T/C (second compound 0.1 µM, first compound 0.3 µM): 5.09% | viability, T/C (second compound 0.1 µM, first compound 0.949 µM): 2.96% | viability, T/C (second compound 0.1 µM, first compound 3 µM): 2.17% | viability, T/C (second compound 0.316 µM, first compound 0.00949 µM): 54.2% | viability, T/C (second compound 0.316 µM, first compound 0.03 µM): 26.2% | viability, T/C (second compound 0.316 µM, first compound 0.0949 µM): 9.29% | viability, T/C (second compound 0.316 µM, first compound 0.3 µM): 5.11% | viability, T/C (second compound 0.316 µM, first compound 0.949 µM): 3% | viability, T/C (second compound 0.316 µM, first compound 3 µM): 2.26% | viability, T/C (second compound 1 µM, first compound 0.00949 µM): 45.8% | viability, T/C (second compound 1 µM, first compound 0.03 µM): 20.7% | viability, T/C (second compound 1 µM, first compound 0.0949 µM): 9.67% | viability, T/C (second compound 1 µM, first compound 0.3 µM): 4.9% | viability, T/C (second compound 1 µM, first compound 0.949 µM): 3.15% | viability, T/C (second compound 1 µM, first compound 3 µM): 2.38% | viability, T/C (second compound 3.16 µM, first compound 0.00949 µM): 36.5% | viability, T/C (second compound 3.16 µM, first compound 0.03 µM): 18.4% | viability, T/C (second compound 3.16 µM, first compound 0.0949 µM): 9.14% | viability, T/C (second compound 3.16 µM, first compound 0.3 µM): 5.23% | viability, T/C (second compound 3.16 µM, first compound 0.949 µM): 3.44% | viability, T/C (second compound 3.16 µM, first compound 3 µM): 2.31% | viability, T/C (second compound 10 µM, first compound 0.00949 µM): 20.9% | viability, T/C (second compound 10 µM, first compound 0.03 µM): 12.1% | viability, T/C (second compound 10 µM, first compound 0.0949 µM): 5.43% | viability, T/C (second compound 10 µM, first compound 0.3 µM): 3.74% | viability, T/C (second compound 10 µM, first compound 0.949 µM): 2.55% | viability, T/C (second compound 10 µM, first compound 3 µM): 2.05%

CC(C)CC(NC(=O)CNC(=O)c1cc(Cl)ccc1Cl)B1OC(=O)CC(CC(=O)O)(C(=O)O)O1 (configuration not stated)
viability, T/C (compound 0.000316 µM): 109% | viability, T/C (compound 0.001 µM): 90.5% and 96.4% | viability, T/C (compound 0.00316 µM): 55.3% and 42.1% | viability, T/C (compound 0.01 µM): 11.1% and 5.88% | viability, T/C (compound 0.0316 µM): 1.51% and 0.31% | viability, T/C (compound 0.1 µM): 1.72% and 0.22% | IC50 (curve of compound): 3.43 nM and 2.67 nM
